Patent US12264170B2, “Antimicrobial organosilanes” (TOPIKOS SCIENTIFIC, INC., priority 2019, dated 2025)

Experiments:
[1] = product dissolved in water, observation
[2] = Dissolution of isolated product in water; assay type: physicochemical; conditions: observation

| Compound | stability in water [1] | dissolution in water [2] |
| --- | --- | --- |
| CCCCCCCCCCCCCCCCC[N+](C)(C)CCC[Si]1(O[C@H](C(=O)O)[C@H](O)[C@H](O)[C@@H](O)C(=O)O)O[C@@H]([C@H](O)C(=O)O)[C@H](O)[C@H](C(=O)O)O1 (stereo partly drawn) [Example 17, N-(3-((4R,5S,6R)-4-carboxy-6-((S)-carboxy(hydroxy)methyl)-2-((1S,2R,3S,4R)-1,4-dicarboxy-2,3,4-trihydroxybutoxy)-5-hydroxy-1,3,2-dioxasilinan-2-yl)propyl)-N,N-dimethylheptadecan-1-aminium chloride] | quickly decomposed to for a biphasic mixture | poorly dissolved in water |
| CCCCCCCCCCCCCCCCCC[N+](C)(C)CCC[Si](OCC(CO)(CO)NCC(=O)[O-])(OCC(CO)(CO)NCC(=O)[O-])OCC(CO)(CO)NCC(=O)O.[Cl-].[Na+].[Na+] [Example 10, Disodium, 7-(2-((carboxymethyl)amino)-3-hydroxy-2-(hydroxymethyl)propoxy)-7-(3-(dimethyl(octadecyl)ammonio)propyl)-4,4,10,10-tetrakis(hydroxymethyl)-6,8-dioxa-3,11-diaza-7-silatridecanedioate; chloride] | – | readily dissolved in water |
| CCCCCCCCCCCCCCCCCC[N+](C)(C)CCC[Si](OCC(CO)(CO)NCCS(=O)(=O)[O-])(OCC(CO)(CO)NCCS(=O)(=O)O)OCC(CO)(CO)NCCS(=O)(=O)O [Example 1, Disodium; 2-[[1-[[3-[dimethyl(octadecyl)ammonio]propyl-[3-hydroxy-2-(hydroxymethyl)-2-(2-sulfoethylamino)propoxy]-[3-hydroxy-2-(hydroxymethyl)-2-(2-sulfonatoethylamino)propoxy]silyl]oxymethyl]-2-hydroxy-1-(hydroxymethyl)ethyl]amino]ethanesulfonate chloride] | – | dissolves in water |
| CCCCCCCCCCCCCCCCCC[N+](C)(C)CCC[Si](OCC(CO)(CO)NCCS(=O)(=O)[O-])(OCC(CO)(CO)NCCS(=O)(=O)O)OCC(CO)(CO)NCCS(=O)(=O)O [Example 4, Sodium; 7,7-bis(3-hydroxy-2-(hydroxymethyl)-2-((2-sulfoethyl)amino)propoxy)-4,4-bis(hydroxymethyl)-11,11-dimethyl-6-oxa-3,11-diaza-7-silanonacosan-11-ium-1-sulfonate; chloride] | – | dissolved quickly in water, initially hazy but slowly forms clear |
| CCCCCCCCCCCCCCCCCC[N+](C)(C)CCC[Si](OCC(CO)(CO)NCC(O)CS(=O)(=O)[O-])(OCC(CO)(CO)NCC(O)CS(=O)(=O)O)OCC(CO)(CO)NCC(O)CS(=O)(=O)O (stereo not shown) [Example 2, Disodium; 3-[[1-[[3-[dimethyl(octadecyl)ammonio]propyl-[3-hydroxy-2-(hydroxymethyl)-2-[(2-hydroxy-3-sulfonato-propyl)amino]propoxy]-[3-hydroxy-2-(hydroxymethyl)-2-[(2-hydroxy-3-sulfo-propyl)amino]propoxy]silyl]oxymethyl]-2-hydroxy-1-(hydroxymethyl)ethyl]amino]-2-hydroxy-propane-1-sulfonate; chloride] | – | dissolves in water |
| Disodium, 7-(2-((carboxymethyl)(2-hydroxyethyl)amino)ethoxy)-7-(3-(heptadecyldimethylammonio)propyl)-3,11-bis(2-hydroxyethyl)-6,8-dioxa-3,11-diaza-7-silatridecanedioate; chloride [Example 13] | soon formed a suspension | readily dissolved in water |
| CCCCCCCCCCCCCCCCCC[N+](C)(C)CCC[Si](OCC(CO)(CO)NCCS(=O)(=O)[O-])(OCC(CO)(CO)NCCS(=O)(=O)O)OCC(CO)(CO)NCCS(=O)(=O)O.[Cl-].[Na+] [Example 21, Monosodium; 2-[[1-[[3-[dimethyl(octadecyl)ammonio]propyl-[3-hydroxy-2-(hydroxymethyl)-2-(2-sulfoethylamino)propoxy]-[3-hydroxy-2-(hydroxymethyl)-2-(2-sulfonatoethylamino)propoxy]silyl]oxymethyl]-2-hydroxy-1-(hydroxymethyl)ethyl]amino]ethanesulfonate chloride] | – | dissolves readily in water |
| CCCCCCCCCCCCCCCCC[N+](C)(C)CCC[Si]12OC[C@@H](O)[C@H](O1)[C@H](O)[C@H](C(=O)[O-])O2 [Example 16, Sodium (3R,4S,5S,6R)-1-(3-(heptadecyldimethylammonio)propyl)-4,6-dihydroxy-2,8,9-trioxa-1-silabicyclo[3.3.1]nonane-3-carboxylate; Chloride] | quickly decomposed to for a biphasic mixture | poorly dissolved in water |
| CCCCCCCCCCCCCCCCC[N+](C)(C)CCC[Si](OCCN(CCO)CC(O)CS(=O)(=O)[O-])(OCCN(CCO)CC(O)CS(=O)(=O)O)OCCN(CCO)CC(O)CS(=O)(=O)O (stereo not shown) [Example 8, Disodium; 3-[2-[3-[heptadecyl(dimethyl)ammonio]propyl-[2-[2-hydroxyethyl-(2-hydroxy-3-sulfonato-propyl)amino]ethoxy]-[2-[2-hydroxyethyl-(2-hydroxy-3-sulfo-propyl)amino]ethoxy]silyl]oxyethyl-(2-hydroxyethyl)amino]-2-hydroxy-propane-1-sulfonate; chloride] | forms a precipitate after 5 hours | dissolved in water |
